Measurements taken from ChEMBL document CHEMBL5712916, “Frequent upregulation of G9a promotes RelB-dependent proliferation and survival in multiple myeloma” (Exp Hematol Oncol, 2020).
pIC50: −log10 of the molar value. Calls of active or inactive are those of the source. No cut-off for these calls is given here.

What was measured:
[1] = Cytotoxicity against human Bortezomib-resistant RPMI-8226 cells assessed as reduction in cell viability measured after 72 hrs by MTS assay; type: functional, cell-based; settings: Bortezomib-resistant RPMI-8226, 72 h
RPMI-8226 [2] = test: Cytotoxicity against human RPMI-8226 cells assessed as reduction in cell viability measured after 72 hrs by MTS assay; type: functional, cell-based; settings: RPMI-8226, 72 h
JJN-3 [3] = test: Cytotoxicity against human JJN-3 cells assessed as reduction in cell viability measured after 72 hrs by MTS assay; type: functional, cell-based; settings: JJN-3, 72 h
KMS-12-BM [4] = test: Cytotoxicity against human KMS-12-BM cells assessed as reduction in cell viability measured after 72 hrs by MTS assay; type: functional, cell-based
[5] = Cytotoxicity against human Bortezomib-resistant RPMI-8226 cells assessed as reduction in cell viability measured after 72 hrs by Celltiter-glo luminescent cell viability assay; type: functional, cell-based; settings: Bortezomib-resistant RPMI-8226, 72 h
RPMI-8226 [6] = test: Cytotoxicity against human RPMI-8226 cells assessed as reduction in cell viability measured after 72 hrs by Celltiter-glo luminescent cell viability assay; type: functional, cell-based; settings: RPMI-8226, 72 h
JJN-3 [7] = test: Cytotoxicity against human JJN-3 cells assessed as reduction in cell viability measured after 72 hrs by Celltiter-glo luminescent cell viability assay; type: functional, cell-based; settings: JJN-3, 72 h
KMS-12-BM [8] = test: Cytotoxicity against human KMS-12-BM cells assessed as reduction in cell viability measured after 72 hrs by Celltiter-glo luminescent cell viability assay; type: functional, cell-based
KMS-12-BM [9] = test: Cytotoxicity against human KMS-12-BM cells expressing shNT assessed as reduction in cell viability measured after 72 hrs by Celltiter-glo luminescent cell viability assay; type: functional, cell-based
[10] = target: T1, Histone-lysine N-methyltransferase EHMT2 (Homo sapiens) (UniProt Q96KQ7); test: Inhibition of G9a in human KMS-12-BM cells assessed as reduction in H3K9me2 level at cytotoxic IC50 measured after 72 hrs by Western blot analysis; type: cell-based
T1 sequence (whole entry): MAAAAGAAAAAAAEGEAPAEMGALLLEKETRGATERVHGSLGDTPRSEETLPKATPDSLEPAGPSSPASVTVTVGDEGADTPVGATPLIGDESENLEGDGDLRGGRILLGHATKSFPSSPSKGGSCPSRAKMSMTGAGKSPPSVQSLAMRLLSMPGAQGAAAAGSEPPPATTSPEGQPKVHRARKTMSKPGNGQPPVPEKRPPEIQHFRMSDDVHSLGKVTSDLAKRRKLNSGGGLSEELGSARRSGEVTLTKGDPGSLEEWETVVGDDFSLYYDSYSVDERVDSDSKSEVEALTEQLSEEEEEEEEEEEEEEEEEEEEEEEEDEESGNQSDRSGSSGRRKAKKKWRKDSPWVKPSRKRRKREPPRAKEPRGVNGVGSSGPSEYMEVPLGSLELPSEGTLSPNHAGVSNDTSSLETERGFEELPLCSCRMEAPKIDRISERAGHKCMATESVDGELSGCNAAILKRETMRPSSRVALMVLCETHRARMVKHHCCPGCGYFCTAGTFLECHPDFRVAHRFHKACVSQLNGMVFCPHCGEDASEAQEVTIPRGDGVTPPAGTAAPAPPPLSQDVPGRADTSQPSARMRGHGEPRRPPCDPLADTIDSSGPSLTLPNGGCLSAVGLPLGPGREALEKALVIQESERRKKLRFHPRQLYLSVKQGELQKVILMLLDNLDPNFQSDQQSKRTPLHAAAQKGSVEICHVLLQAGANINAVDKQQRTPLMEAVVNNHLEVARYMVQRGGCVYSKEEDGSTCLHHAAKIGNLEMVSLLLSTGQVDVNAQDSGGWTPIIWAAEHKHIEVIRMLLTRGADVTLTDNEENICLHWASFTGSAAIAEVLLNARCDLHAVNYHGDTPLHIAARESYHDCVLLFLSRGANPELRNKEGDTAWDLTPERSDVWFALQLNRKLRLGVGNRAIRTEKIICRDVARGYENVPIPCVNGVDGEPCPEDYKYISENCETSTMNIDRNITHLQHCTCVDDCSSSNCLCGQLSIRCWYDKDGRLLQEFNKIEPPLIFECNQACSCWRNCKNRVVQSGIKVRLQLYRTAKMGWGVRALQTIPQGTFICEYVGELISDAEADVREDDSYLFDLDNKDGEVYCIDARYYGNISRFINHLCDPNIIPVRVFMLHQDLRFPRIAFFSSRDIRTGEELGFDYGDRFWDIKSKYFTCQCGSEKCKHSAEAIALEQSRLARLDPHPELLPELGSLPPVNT

KMS-12-BM [11] = test: Effect on G9a expression in human KMS-12-BM cells at cytotoxic IC50 measured after 72 hrs by Western blot analysis; type: functional, cell-based
[12] = target: T1, Histone-lysine N-methyltransferase EHMT2 (Homo sapiens); test: Inhibition of G9a in human JJN-3 cells assessed as reduction in RelB mRNA expression at cytotoxic IC50 measured after 72 hrs by qRT-PCR analysis; type: cell-based
[13] = target: T1, Histone-lysine N-methyltransferase EHMT2 (Homo sapiens); test: Inhibition of G9a in human JJN-3 cells assessed as increase in BMF mRNA expression at cytotoxic IC50 measured after 72 hrs by qRT-PCR analysis; type: cell-based
KMS-12-BM [14] = test: Cytotoxicity against human KMS-12-BM cells expressing shG9a assessed as reduction in cell viability measured after 72 hrs by Celltiter-glo luminescent cell viability assay; type: functional, cell-based
KMS-12-BM [15] = test: Cytotoxicity against human KMS-12-BM cells assessed as decrease in number of colonies incubated for 14 days by colony formation assay; type: functional, cell-based; settings: time 14.0 day
JJN-3 [16] = test: Cytotoxicity against human JJN-3 cells assessed as decrease in number of colonies incubated for 14 days by colony formation assay; type: functional, cell-based; settings: time 14.0 day
[17] = target: Histone-lysine N-methyltransferase EZH2 (Homo sapiens, UniProt Q15910); test: Inhibition of EZH2 (unknown origin)
[18] = Cytotoxicity against human MSC cells assessed as reduction in cell viability measured after 72 hrs by MTS assay; type: toxicity, cell-based
[19] = Cytotoxicity against human CD38-positive cells assessed as reduction in cell viability measured after 72 hrs by Celltiter-glo luminescent cell viability assay; type: toxicity, cell-based
JJN-3 [20] = test: Cytotoxicity against human JJN-3 cells expressing shNT assessed as reduction in cell viability measured after 72 hrs by Celltiter-glo luminescent cell viability assay; type: functional, cell-based; settings: JJN-3, 72 h
JJN-3 [21] = test: Cytotoxicity against human JJN-3 cells expressing shG9a assessed as reduction in cell viability measured after 72 hrs by Celltiter-glo luminescent cell viability assay; type: functional, cell-based; settings: JJN-3, 72 h
KMS-12-BM [22] = test: Cytotoxicity against human KMS-12-BM cells assessed as reduction in colony size incubated for 14 days by colony formation assay; type: functional, cell-based; settings: time 14.0 day
JJN-3 [23] = test: Cytotoxicity against human JJN-3 cells assessed as reduction in colony size incubated for 14 days by colony formation assay; type: functional, cell-based; settings: time 14.0 day
[24] = target: T1, Histone-lysine N-methyltransferase EHMT2 (Homo sapiens); test: Inhibition of G9a in human JJN-3 cells assessed as increase in Bim mRNA expression at cytotoxic IC50 measured after 72 hrs by qRT-PCR analysis; type: cell-based
[25] = target: T1, Histone-lysine N-methyltransferase EHMT2 (Homo sapiens); test: Inhibition of G9a in human JJN-3 cells assessed as decrease in NFKB2 expression at cytotoxic IC50 measured after 72 hrs by Western blot analysis; type: cell-based
[26] = target: T1, Histone-lysine N-methyltransferase EHMT2 (Homo sapiens); test: Inhibition of G9a in human JJN-3 cells assessed as decrease in p100 expression at cytotoxic IC50 measured after 72 hrs by Western blot analysis; type: cell-based
[27] = target: T1, Histone-lysine N-methyltransferase EHMT2 (Homo sapiens); test: Inhibition of G9a in human JJN-3 cells assessed as decrease in p52 expression at cytotoxic IC50 measured after 72 hrs by Western blot analysis; type: cell-based

Histone-lysine N-methyltransferase EZH2, sequence (Q15910 whole entry): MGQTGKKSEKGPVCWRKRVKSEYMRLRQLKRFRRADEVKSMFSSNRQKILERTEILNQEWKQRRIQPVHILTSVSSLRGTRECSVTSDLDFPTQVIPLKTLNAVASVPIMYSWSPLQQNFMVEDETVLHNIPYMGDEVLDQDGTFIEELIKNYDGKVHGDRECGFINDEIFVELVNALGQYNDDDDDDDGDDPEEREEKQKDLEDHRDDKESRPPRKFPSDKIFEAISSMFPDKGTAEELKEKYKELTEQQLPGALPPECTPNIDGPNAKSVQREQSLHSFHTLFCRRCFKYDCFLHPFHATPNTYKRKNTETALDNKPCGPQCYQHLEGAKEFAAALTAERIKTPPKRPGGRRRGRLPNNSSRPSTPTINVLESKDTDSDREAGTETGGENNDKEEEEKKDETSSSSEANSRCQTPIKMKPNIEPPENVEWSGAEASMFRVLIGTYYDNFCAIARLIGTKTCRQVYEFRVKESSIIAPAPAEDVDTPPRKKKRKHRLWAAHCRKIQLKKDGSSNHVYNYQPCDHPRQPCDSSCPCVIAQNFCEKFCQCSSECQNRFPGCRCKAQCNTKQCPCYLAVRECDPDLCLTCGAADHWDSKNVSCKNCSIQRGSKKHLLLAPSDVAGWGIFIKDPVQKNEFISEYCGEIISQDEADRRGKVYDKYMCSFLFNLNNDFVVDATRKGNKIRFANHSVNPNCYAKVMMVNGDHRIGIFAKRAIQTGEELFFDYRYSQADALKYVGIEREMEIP

`COc1cc2c(NC3CCN(C(C)C)CC3)nc(N3CCC(F)(F)CC3)nc2cc1OCCCN1CCCC1` gave a pIC50 [1] of 4.90, a pIC50 (RPMI-8226 [2]) of 4.57 and a pIC50 (JJN-3 [3]) of 4.72. It also gave a pIC50 (KMS-12-BM [4]) of 4.69, a pIC50 [5] of 4.60 and a pIC50 (RPMI-8226 [6]) of 4.66. For the same compound, the pIC50 (JJN-3 [7]) was 5.23, the pIC50 (KMS-12-BM [8]) was 4.97 and the pIC50 (KMS-12-BM [9]) was 4.62. For the same compound, the inhibition [10] was “Active”, the Activity (KMS-12-BM [11]) was “inactive” and the inhibition [12] was “Active”. The inhibition [13] was “Active”, the pIC50 (KMS-12-BM [14]) was 4.23 and the Activity (KMS-12-BM [15]) was “Active”. For the same compound, the Activity (JJN-3 [16]) was “Active”, the pIC50 [17] was 5.30 and the IC50 at 72 h [18] was 36.9 µM. It also gave an IC50 at 72 h [19] of 6.91 µM, a pIC50 (JJN-3 [20]) of 5.17 and a pIC50 (JJN-3 [21]) of 4.75. The Activity (KMS-12-BM [22]) was “Active”, the Activity (JJN-3 [23]) was “Active” and the inhibition [24] was “Active”. For the same compound, the inhibition [25] was “Active”, the inhibition [26] was “Active” and the inhibition [27] was “Active”.
